Experimental data: patent publication US9078868B2, “Therapeutic agent for accelerating recovery of animal under medical treatment” (UNIVERSITY OF MIYAZAKI, priority 2010, dated 2015)
No end group written: not given here. *: point of attachment. Octanoyl = CCCCCCCC(=O)*

Tested on: animals with poor physical conditions, surgery or no surgery
Assay: Example 3-2: improvement after ghrelin in animals which had or had not undergone a surgery
Assay type: in vivo, canines and felines
Conditions: dash = no significant difference
Experimental: A canine-derived ghrelin was repeatedly administered intravenously or subcutaneously to each of the animals with poor physical conditions. The dose of intravenous administration was approximately 5 μg/kg or 10 μg/kg, and the dose of subcutaneous administration was approximately 100 μg/kg. The mean number of doses in repeated administration was approximately four times, and the maximum number of doses was 11 times. The administration period was one to six days.
Evaluation parameters evaluated before and after administration of ghrelin were appetite, quantity of meal, biochemical test values (GOT, GPT, BUN, CRE, CPK, CRP), blood cell test values (white blood cell [WBC], platelet [PLT]), body temperature, activity (vigor), skin, coat, wellness, the degree of anger or anxiety, respiratory rate, and others. These parameters were analyzed together with the results of the animals receiving a single dose (Examples 1 and 2). The analysis results were compiled by disease, such as renal dysfunction, tumor, fracture, and accident (see Table 3-1). Statistical analysis of values before and after administration was performed using a paired t-test.
Ghrelin was administered to animals with poor physical conditions after surgery for the treatment of various pathological conditions, and various parameters indicating physical conditions before and after administration of ghrelin were analyzed. The surgery included urethroplasty, surgery for a fracture, luxation, disc hernia, or diaphragmatic hernia, surgical removal of a tumor, and surgical removal of a reproductive organ due to pyometra.
Meanwhile, ghrelin was administered to animals with poor physical conditions due to various pathological conditions which had not undergone a surgery, and various parameters indicating physical conditions before and after administration of ghrelin were analyzed. The pathological conditions included filariasis, mite infestation, babesiosis, hemobartonellosis, bite, and dermatitis.

GSS (n-octanoyl) FLSPEHQKLQQRKESKKPPAKLQPR (GSS(Octanoyl)FLSPEHQKLQQRKESKKPPAKLQPR; listed as Canis familiaris) [ghrelin, chemically synthesized, lyophilized]
BUN: significance (p) of improvement after vs before administration (no surgery, 24 animals): p < 0.05 | GPT: significance (p) of improvement after vs before administration (no surgery, 24 animals): p < 0.05 | Vigor: significance (p) of improvement after vs before administration (no surgery, 24 animals): p < 0.01 | WBC: significance (p) of improvement after vs before administration (no surgery, 24 animals): p < 0.05 | BUN: significance (p) of improvement after vs before administration (surgery, 70 animals): p < 0.05 | Body temperature: significance (p) of improvement after vs before administration (surgery, 70 animals): p < 0.01 | CRE: significance (p) of improvement after vs before administration (surgery, 70 animals): p < 0.05 | Degree of anger: significance (p) of improvement after vs before administration (surgery, 70 animals): p < 0.01 | GOT: significance (p) of improvement after vs before administration (surgery, 70 animals): p < 0.01 | GPT: significance (p) of improvement after vs before administration (surgery, 70 animals): p < 0.01 | PLT: significance (p) of improvement after vs before administration (surgery, 70 animals): p < 0.05 | Respiratory rate: significance (p) of improvement after vs before administration (surgery, 70 animals): p < 0.05 | Vigor: significance (p) of improvement after vs before administration (surgery, 70 animals): p < 0.01
